From patent US20050096323A1, “Diketopiperazine derivatives to inhibit thrombin” (NovoScience Pharma Inc., priority 1999, published 2005)
Where a name gives a salt, the structure may show the parent alone.

How the values were obtained:
urokinase = target: T1, urokinase (Homo sapiens, UniProt P00749); experiment: Urokinase inhibition constant (Ki), fluorogenic substrate assay; assay type: biochemical
T1 construct: purchased Sigma
Description: (§1) The activity and selectivity of the present invention can be identified by determination of the inhibition constant (Ki) for serine proteases such thrombin and trypsin and fibrinolytic enzymes such as urokinase, plasmin and tissue plasminogen activator (tPA). All of enzymes are purchased from Sigma. The general assay conditions are as follows. The fluorogenic substrates are dissolved in DMSO and diluted using assay buffer containing 50 mM Tris.HCl (pH 7.8 at 25° C.), 0.1 M NaCl and 0.1% polyethylene glycol 8000 (PEG 8000). […] The assays were conducted using Hitachi F2500 spectrophotometer under ambient temperature and at the excitation and emission wavelengths of 383 nm and 455 nm, respectively. The typical progressive data of the enzymatic assays are shown in FIGS. 1-3, and the determination of inhibition constant (Ki) is shown in FIG. 4.

plasmin = target: T2, plasmin (Homo sapiens, UniProt P00747); experiment: Plasmin inhibition constant (Ki), fluorogenic substrate assay; assay type: biochemical
T2 construct: purchased Sigma
Description: as §1

ICR mice [1] = experiment: Acute toxicity, oral gavage, determination of the maximal dose; assay type: in vivo
Description: The dose is based on maximal dissolution rate and maximal administered volume of the drug.

trypsin = target: T3, trypsin (Bos taurus, UniProt P00760); experiment: Trypsin inhibition constant (Ki), fluorogenic substrate assay; assay type: biochemical
T3 sequence (P00760 24-246): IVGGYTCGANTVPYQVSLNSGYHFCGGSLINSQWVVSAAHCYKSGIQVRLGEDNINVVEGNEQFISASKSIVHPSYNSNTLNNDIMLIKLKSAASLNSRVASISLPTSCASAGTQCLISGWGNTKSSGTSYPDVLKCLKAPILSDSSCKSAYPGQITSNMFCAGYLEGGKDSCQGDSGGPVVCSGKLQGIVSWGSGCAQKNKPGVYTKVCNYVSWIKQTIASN
Description: as §1

SD rats = experiment: Acute myocardial infarction by coronary artery ligation in rats; assay type: in vivo, rat; conditions: for CK (u/ml) / LDH (u/ml): serum;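 for CK (u/ml): blood collected at end of 6 h (i.v.) or 8 h (intraduodenal) ECG observation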;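 for LDH (u/ml): blood collected at end of 6 h (i.v.) or 8 h (intraduodenal) ECG observation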
Description: The drugs were administered 8 to 10 min after the coronary artery was ligated.

ICR mice [2] = experiment: Clotting time (CT) of mice whole blood after administration; assay type: in vivo
Description: Blood samples were collected using the capillary method 0.5 h and 1.5 h after i.v. injections and 1 h and 3 h after i.g. and clotting time of whole blood was measured.

thrombin = target: T4, thrombin (Homo sapiens, UniProt P00734); experiment: Thrombin inhibition constant (Ki), fluorogenic substrate assay; assay type: biochemical; conditions: for Cycloargatroban vs. Argatroban, Ki(Thrombin): thrombin inhibition activity relative to argatroban
T4 construct: purchased Sigma

[3] = 0.125 mg/kg i.v., 0 min after ligation (before drug)
[4] = 0.125 mg/kg i.v., 10 min after ligation
[5] = 0.125 mg/kg i.v., 30 min after ligation
[6] = 0.125 mg/kg i.v., 6 h after ligation
[7] = 0.25 mg/kg i.v., 0 min after ligation (before drug)
[8] = 0.25 mg/kg i.v., 10 min after ligation
[9] = 0.25 mg/kg i.v., 30 min after ligation
[10] = 0.25 mg/kg i.v., 6 h after ligation
[11] = 75 mg/kg intraduodenum, 0 min after ligation (before drug)
[12] = 75 mg/kg intraduodenum, 10 min after ligation
[13] = 75 mg/kg intraduodenum, 30 min after ligation
[14] = 75 mg/kg intraduodenum, 6 h after ligation

T2 sequence (P00747 581-810 limits assumed, species assumed): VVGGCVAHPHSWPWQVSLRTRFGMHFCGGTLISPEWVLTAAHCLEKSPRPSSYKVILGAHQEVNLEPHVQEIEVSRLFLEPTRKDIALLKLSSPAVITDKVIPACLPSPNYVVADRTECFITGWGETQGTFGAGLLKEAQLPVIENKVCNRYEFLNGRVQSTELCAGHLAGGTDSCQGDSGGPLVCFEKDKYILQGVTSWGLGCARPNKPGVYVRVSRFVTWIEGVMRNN
T2 sequence (P00747 97-580 partner limits assumed, species assumed): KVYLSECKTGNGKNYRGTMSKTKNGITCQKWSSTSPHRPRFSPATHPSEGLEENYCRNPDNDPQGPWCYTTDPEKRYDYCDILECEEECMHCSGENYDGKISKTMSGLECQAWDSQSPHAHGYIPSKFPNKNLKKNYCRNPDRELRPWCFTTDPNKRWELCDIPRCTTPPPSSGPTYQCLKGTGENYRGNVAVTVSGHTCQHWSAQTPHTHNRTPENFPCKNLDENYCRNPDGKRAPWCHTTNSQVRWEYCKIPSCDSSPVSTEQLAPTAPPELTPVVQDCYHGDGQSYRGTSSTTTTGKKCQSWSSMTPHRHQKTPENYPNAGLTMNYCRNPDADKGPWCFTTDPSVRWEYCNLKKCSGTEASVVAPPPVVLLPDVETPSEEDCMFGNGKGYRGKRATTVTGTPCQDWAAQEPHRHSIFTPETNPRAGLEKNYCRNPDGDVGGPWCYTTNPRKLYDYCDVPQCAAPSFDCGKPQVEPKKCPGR

CC1CNc2c(cccc2S(=O)(=O)N2C(=O)C3CC(C)CCN3C(=O)C2CCCNC(=N)N)C1 [NPI1999, (3S,6R,8R)-Bicyclo[4.4.0]-1,4-diaza-3-(3-guanidinopropyl)-4-N-(1,2,3,4-tetrahydro-3-methyl-8-quinolinesulfonyl)-8-methyl-2,5-decanedione, hydrochoride salt]
Cycloargatroban [Ki (Enzyme)/Ki (Thrombin)] vs. Argatroban [Ki (Enzyme)/Ki (Thrombin)] (urokinase; enzyme = urokinase): −0.14 fold | Ki (urokinase; substrate N-Cbz-Gly-Gly-Arg-AMC): 295 µM | Cycloargatroban [Ki (Enzyme)/Ki (Thrombin)] vs. Argatroban [Ki (Enzyme)/Ki (Thrombin)] (plasmin; enzyme = plasmin): −0.67 fold | Ki (plasmin; substrate D-Ala-Leu-Lys-AMC): 528 µM | Maximal dose of oral gavage (ICR mice [1]; ICR mice, i.g.): 2860 mg/kg | maximal dose of i.g. (ICR mice [1]; ICR mice, i.g.): 2.86 g/kg/day | mortality (ICR mice [1]; i.g. 1.43 g/kg twice, up to one week): No mortality was observed | Cycloargatroban [Ki (Enzyme)/Ki (Thrombin)] vs. Argatroban [Ki (Enzyme)/Ki (Thrombin)] (trypsin; listed as Cycloargatroban): +12 fold | Cycloargatroban [Ki (Enzyme)/Ki (Thrombin)] vs. Argatroban [Ki (Enzyme)/Ki (Thrombin)] (trypsin; listed as cycloargatroban): 12 fold | Infarction Area (%) (SD rats; 0.125 mg/kg i.v.): 26.40 ± 7.42 % | S point in electrocardiogram (SD rats; [3]): 0.33 ± 0.12 | T wave in electrocardiogram (SD rats; [3]): 0.19 ± 0.15 | S point in electrocardiogram (SD rats; [4]): 0.34 ± 0.19 | T wave in electrocardiogram (SD rats; [4]): 0.17 ± 0.18 | S point in electrocardiogram (SD rats; [5]): 0.27 ± 0.21 | T wave in electrocardiogram (SD rats; [5]): 0.18 ± 0.23 | S point in electrocardiogram (SD rats; [6]): 0.08 ± 0.14 | T wave in electrocardiogram (SD rats; [6]): 0.02 ± 0.16 | Infarction Area (%) (SD rats; 0.25 mg/kg i.v.): 25.66 ± 7.32 % | S point in electrocardiogram (SD rats; [7]): 0.33 ± 0.17 | T wave in electrocardiogram (SD rats; [7]): 0.19 ± 0.11 | S point in electrocardiogram (SD rats; [8]): 0.42 ± 0.20 | T wave in electrocardiogram (SD rats; [8]): 0.27 ± 0.13 | S point in electrocardiogram (SD rats; [9]): 0.34 ± 0.22 | T wave in electrocardiogram (SD rats; [9]): 0.26 ± 0.17 | S point in electrocardiogram (SD rats; [10]): 0.24 ± 0.18 | T wave in electrocardiogram (SD rats; [10]): 0.15 ± 0.11 | Infarction Area (%) (SD rats; 75 mg/kg intraduodenum): 30.98 ± 7.41% | S point in electrocardiogram (SD rats; [11]): 0.26 ± 0.13 | T wave in electrocardiogram (SD rats; [11]): 0.12 ± 0.11 | S point in electrocardiogram (SD rats; [12]): 0.28 ± 0.07 | T wave in electrocardiogram (SD rats; [12]): 0.15 ± 0.09 | S point in electrocardiogram (SD rats; [13]): 0.28 ± 0.10 | T wave in electrocardiogram (SD rats; [13]): 0.18 ± 0.11 | S point in electrocardiogram (SD rats; [14]): 0.18 ± 0.22 | T wave in electrocardiogram (SD rats; [14]): 0.13 ± 0.11 | infarction area and serum LDH and CK (SD rats; i.v. 0.25 mg/kg and 0.125 mg/kg): significantly reduced | infarction area and serum LDH and CK (SD rats; intra-duodenum 75 mg/kg): no significant effects | CK (u/ml) (SD rats; 0.125 mg/kg i.v.): 52.75 ± 16.25 u/ml | LDH (u/ml) (SD rats; 0.125 mg/kg i.v.): 6254.1 ± 220.1 u/ml | CK (u/ml) (SD rats; 0.25 mg/kg i.v.): 56.52 ± 14.48 u/ml | LDH (u/ml) (SD rats; 0.25 mg/kg i.v.): 6125.7 ± 385.5 u/ml | CK (u/ml) (SD rats; 75 mg/kg intraduodenum): 53.90 ± 20.60 u/ml | LDH (u/ml) (SD rats; 75 mg/kg intraduodenum): 6393.3 ± 308.7 u/ml | CT (clotting time of whole blood) (ICR mice [2]; 0.25 mg/kg i.v. group, before administration): 128.53 ± 27.14 | CT (clotting time of whole blood) (ICR mice [2]; 0.25 mg/kg i.v., 0.5 h): 140.02 ± 26.40 | CT (clotting time of whole blood) (ICR mice [2]; 0.25 mg/kg i.v., 1.5 h): 139.88 ± 30.40 | CT (clotting time of whole blood) (ICR mice [2]; 0.5 mg/kg i.v. group, before administration): 125.53 ± 25.03 | CT (clotting time of whole blood) (ICR mice [2]; 0.5 mg/kg i.v., 0.5 h): 172.88 ± 34.26 | CT (clotting time of whole blood) (ICR mice [2]; 0.5 mg/kg i.v., 1.5 h): 161.76 ± 40.10 | CT (clotting time of whole blood) (ICR mice [2]; 1 mg/kg i.v. group, before administration): 124.06 ± 28.96 | CT (clotting time of whole blood) (ICR mice [2]; 1 mg/kg i.v., 0.5 h): 165.12 ± 30.57 | CT (clotting time of whole blood) (ICR mice [2]; 1 mg/kg i.v., 1.5 h): 163.62 ± 44.26 | CT (clotting time of whole blood) (ICR mice [2]; 75 mg/kg i.g. group, before administration): 126.11 ± 22.83 | CT (clotting time of whole blood) (ICR mice [2]; 75 mg/kg i.g., 1 h): 133.11 ± 29.00 | CT (clotting time of whole blood) (ICR mice [2]; 75 mg/kg i.g., 3.0 h): 119.39 ± 25.88 | CT (clotting time of whole blood) (ICR mice [2]; 150 mg/kg i.g. group, before administration): 125.50 ± 23.67 | CT (clotting time of whole blood) (ICR mice [2]; 150 mg/kg i.g., 1 h): 128.06 ± 30.03 | CT (clotting time of whole blood) (ICR mice [2]; 150 mg/kg i.g., 3.0 h): 119.44 ± 26.01 | clotting time compared to controls (ICR mice [2]; i.g. 75 mg/kg and 150 mg/kg, 1 h and 3 h): No significant difference | clotting time compared to controls (ICR mice [2]; i.v. 0.5 mg/kg and 1 mg/kg, 0.5 h and 1.5 h): significantly prolonged | Ki (thrombin; Table II, method of example 9): 0.02 to 0.04 µM | Ki (thrombin; substrate Tos-Gly-Pro-Arg-AMC, pH 7.8): 0.04 µM | Cycloargatroban vs. Argatroban, Ki(Thrombin) (thrombin; listed as Cycloargatroban): −2.1 fold | Cycloargatroban vs. Argatroban, Ki(Thrombin) (thrombin; listed as cycloargatroban): 2.1 fold
